Experimental data taken from ChEMBL document CHEMBL1138944, “3-Substituted gem-cyclohexane sulfone based gamma-secretase inhibitors for Alzheimer's disease: conformational analysis and biological activity” (Bioorg Med Chem Lett, 2006).

Target: Gamma-secretase
Assay: Inhibition of gamma secretase expressed in SH-SY5Y cells
Format: cell-based, Homo sapiens

| SMILES | IC50 [nM] |
| --- | --- |
| C=CC[C@H]1CCC[C@](c2cc(F)ccc2F)(S(=O)(=O)c2ccc(Cl)cc2)C1 | 85 |
| O=S(=O)(c1ccc(Cl)cc1)[C@@]1(c2cc(F)ccc2F)CCC[C@@H](CCCO)C1 (relative stereo) | 8 |
| COC(=O)CCC[C@@]1(C)CCC[C@](c2cc(F)ccc2F)(S(=O)(=O)c2ccc(Cl)cc2)C1 (relative stereo) | 1630 |
| O=C[C@H]1CCC[C@](c2cc(F)ccc2F)(S(=O)(=O)c2ccc(Cl)cc2)C1 (relative stereo) | 55 |
| COC(=O)CCC[C@@H]1CCC[C@](c2cc(F)ccc2F)(S(=O)(=O)c2ccc(Cl)cc2)C1 (relative stereo) | 3 |
| COC(=O)/C=C/C[C@@H]1CCC[C@](c2cc(F)ccc2F)(S(=O)(=O)c2ccc(Cl)cc2)C1 (relative stereo) | 10 |
| COC(=O)CCC[C@]1(C)CCC[C@](c2cc(F)ccc2F)(S(=O)(=O)c2ccc(Cl)cc2)C1 (relative stereo) | 10 |
| O=C[C@@H]1CCC[C@](c2cc(F)ccc2F)(S(=O)(=O)c2ccc(Cl)cc2)C1 (relative stereo) | 77 |
| COC(=O)/C=C/C[C@H]1CCC[C@](c2cc(F)ccc2F)(S(=O)(=O)c2ccc(Cl)cc2)C1 (relative stereo) | 210 |
| O=S(=O)(c1ccc(Cl)cc1)[C@@]1(c2cc(F)ccc2F)CCC[C@H](CCCO)C1 (relative stereo) | 112 |
| C=CC[C@@H]1CCC[C@](c2cc(F)ccc2F)(S(=O)(=O)c2ccc(Cl)cc2)C1 (relative stereo) | 44 |
| O=C(O)CC[C@@H]1CCC[C@](c2cc(F)ccc2F)(S(=O)(=O)c2ccc(Cl)cc2)C1 (relative stereo) | 24 |
| COC(=O)CCC[C@H]1CCC[C@](c2cc(F)ccc2F)(S(=O)(=O)c2ccc(Cl)cc2)C1 (relative stereo) | 376 |
| O=C(O)CC[C@H]1CCC[C@](c2cc(F)ccc2F)(S(=O)(=O)c2ccc(Cl)cc2)C1 (relative stereo) | 380 |
